Patent publication US10308607B2, “Fucosidase inhibitors” (HORIZON ORPHAN LLC, priority 2015, dated 2019)
“And” between values parts separate entries of the source, which are not always exact repeats. Identical values can stand only once.

Columns and labels:
HepG2 cells = test: Metabolic labeling with tagged-fucose, flow cytometry; type: cell-based, human
Protocol: Perturbations in glycoprotein metabolism were assayed by growing HepG2 cells without fucosidase inhibitors, or with compound II, III, or IV (see Example 2) for 24 hours, and then adding (3S,4R,5R,6S)-6-ethynyltetrahydro-2H-pyran-2,3,4,5-tetrayl tetra acetate, a per-acetylated analog of fucose containing an alkyne moiety in place of the 5′-methyl group (Click-iT™ Fucose Alkyne, Molecular Probes, Eugene, Oreg.) for an additional 48 hours. Cells were fixed, permeabilized, washed, and stained with Alexa Fluor 488 Azide to orthogonally label glycoproteins incorporating the fucose analog. Cells were then analyzed for fluorescence using a Guava 6HT-2L flow cytometer (ThermoFisher).

[1] = system: human hepatocarcinoma cell line HepG2; test: Orthotopic model of human hepatocellular carcinoma; type: in vivo, nude mice
Protocol: To assess the compounds in vivo, an orthotopic model of human hepatocellular carcinoma was used. The orthotopic tumor model was generated by implanting human hepatocarcinoma cell line HepG2 into nude mice and allowing the tumor cells to grow in vivo.
The efficacy study was carried out using 10 mice per group and two dosage regimens. Compound II (see Example 2) was administered by oral gavage (po) at a dosage of 175 mg/kg once daily for 3 weeks (QDx21) or at a dosage of 87.5 mg/kg twice daily for 3 weeks (BIDx21). Vehicle (100 μL) was administered to control animals.

[2] = Pharmacokinetics in mouse plasma; type: in vivo; details: for Conc. of cmpd II: individual animal
Protocol: To assess the pharmacokinetics of compound II (see Example 2) in mouse plasma, compound II was administered intravenously at a dosage of 1 mg/kg. Compound II concentration was measured at various time points up to 24 hours after administration, and the results are provided in Table 5.

rhFUCA1 = rhFUCA1 (Homo sapiens (Human), UniProt P04066); test: In vitro fucosidase inhibition (4MU-FUC fluorescence); type: biochemical; details: 1 ng/mL rhFUCA1, 640 nM 4MU-FUC, pH 4.5, 37° C., 30 minutes
Protocol: Fucosidase inhibition was assessed by preparing a reaction mixture of 50 mM phosphate-citrate pH 4.5, 5 mM MgCl2, 640 nM 4-methylumbelliferyl-alpha-L-fucopyranoside (4MU-FUC), 1 ng/mL rhFUCA1 (R&D Systems), and compound II, III, or IV:
Reactions (100 μL) were incubated at 37° C. for 30 minutes and then quenched with the same volume of 600 mM citrate-carbonate buffer, pH 9. Fluorescence was measured by excitation at 360 nm and emission at 450 nm.

[3] = 87.5 mg/kg po twice daily (BIDx21), Day 0
[4] = 87.5 mg/kg po twice daily (BIDx21), Day 2
[5] = 87.5 mg/kg po twice daily (BIDx21), Day 5
[6] = 87.5 mg/kg po twice daily (BIDx21), Day 9
[7] = 87.5 mg/kg po twice daily (BIDx21), Day 12
[8] = 87.5 mg/kg po twice daily (BIDx21), Day 16
[9] = 87.5 mg/kg po twice daily (BIDx21), Day 20
[10] = 175 mg/kg po once daily (QDx21), Day 0
[11] = 175 mg/kg po once daily (QDx21), Day 2
[12] = 175 mg/kg po once daily (QDx21), Day 5
[13] = 175 mg/kg po once daily (QDx21), Day 9
[14] = 175 mg/kg po once daily (QDx21), Day 12
[15] = 175 mg/kg po once daily (QDx21), Day 16
[16] = 175 mg/kg po once daily (QDx21), Day 20

Chain of rhFUCA1 (P04066 32-466): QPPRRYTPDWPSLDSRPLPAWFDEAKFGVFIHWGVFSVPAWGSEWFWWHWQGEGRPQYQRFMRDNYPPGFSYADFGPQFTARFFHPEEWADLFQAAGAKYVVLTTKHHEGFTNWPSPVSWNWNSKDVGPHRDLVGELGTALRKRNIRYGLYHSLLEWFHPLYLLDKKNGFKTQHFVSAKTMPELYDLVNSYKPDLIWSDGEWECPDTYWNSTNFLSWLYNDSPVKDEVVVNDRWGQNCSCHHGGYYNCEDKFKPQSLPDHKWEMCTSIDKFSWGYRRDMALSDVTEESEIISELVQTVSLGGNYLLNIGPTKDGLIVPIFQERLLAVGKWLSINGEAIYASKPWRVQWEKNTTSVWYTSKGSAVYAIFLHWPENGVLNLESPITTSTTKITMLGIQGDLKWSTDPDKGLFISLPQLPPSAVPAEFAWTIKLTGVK

C[C@@H]1N[C@H](CNC(=O)c2cccc3c2C(=O)c2ccccc2-3)[C@@H](O)[C@H](O)[C@@H]1O [Compound II]
Mean Green Fluorescence (GRN-HLog) (HepG2 cells; HepG2, 24 hours compound then 48 hours fucose alkyne, Alexa Fluor 488 Azide): 8433 | Fold over vehicle (HepG2 cells; mean green fluorescence, HepG2): 2.98 | Body Weight [1, 3]: 22.45 g | Tumor Volume [1, 3]: 212 mm^3 | Body Weight [1, 4]: 22.05 g | Tumor Volume [1, 4]: 224 mm^3 | Body Weight [1, 5]: 21.93 g | Tumor Volume [1, 5]: 227 mm^3 | Body Weight [1, 6]: 21.58 g | Tumor Volume [1, 6]: 247 mm^3 | Body Weight [1, 7]: 21.51 g | Tumor Volume [1, 7]: 270 mm^3 | Body Weight [1, 8]: 20.39 g | Tumor Volume [1, 8]: 326 mm^3 | Body Weight [1, 9]: 20.86 g | Tumor Volume [1, 9]: 320 mm^3 | Body Weight [1, 10]: 22.93 g | Tumor Volume [1, 10]: 211 mm^3 | Body Weight [1, 11]: 22.94 g | Tumor Volume [1, 11]: 238 mm^3 | Body Weight [1, 12]: 22.28 g | Tumor Volume [1, 12]: 277 mm^3 | Body Weight [1, 13]: 22.1 g | Tumor Volume [1, 13]: 320 mm^3 | Body Weight [1, 14]: 22.26 g | Tumor Volume [1, 14]: 348 mm^3 | Body Weight [1, 15]: 20.58 g | Tumor Volume [1, 15]: 364 mm^3 | Body Weight [1, 16]: 19.98 g | Tumor Volume [1, 16]: 416 mm^3 | Conc. of cmpd II ([2]; IV 1 mg/kg qdx1, 5 min): 247 ng/mL and 313 ng/mL and 259 ng/mL | Mean conc. of cmpd II ([2]; IV 1 mg/kg qdx1, 5 min): 273 ng/mL | Conc. of cmpd II ([2]; IV 1 mg/kg qdx1, 1 h): 28.7 ng/mL and 31.8 ng/mL and 34.3 ng/mL | Mean conc. of cmpd II ([2]; IV 1 mg/kg qdx1, 1 h): 31.6 ng/mL | Conc. of cmpd II ([2]; IV 1 mg/kg qdx1, 2 h): 8.58 ng/mL and 5.83 ng/mL and 9.10 ng/mL | Mean conc. of cmpd II ([2]; IV 1 mg/kg qdx1, 2 h): 7.84 ng/mL | Conc. of cmpd II ([2]; IV 1 mg/kg qdx1, 4 h): 2.76 ng/mL and 1.86 ng/mL and 3.36 ng/mL | Mean conc. of cmpd II ([2]; IV 1 mg/kg qdx1, 4 h): 2.66 ng/mL | Conc. of cmpd II ([2]; IV 1 mg/kg qdx1, 8 h): 1.56 ng/mL and 1.17 ng/mL and 1.57 ng/mL | Mean conc. of cmpd II ([2]; IV 1 mg/kg qdx1, 8 h): 1.43 ng/mL | Conc. of cmpd II ([2]; IV 1 mg/kg qdx1, 12 h): 1.04 ng/mL and 1.06 ng/mL and 2.04 ng/mL | Mean conc. of cmpd II ([2]; IV 1 mg/kg qdx1, 12 h): 1.38 ng/mL | Conc. of cmpd II ([2]; IV 1 mg/kg qdx1, 24 h): BQL (Below Quantitation limit <1.0 ng/m1) | IC50 (rhFUCA1): 16 nM
